Laboratory results reported in patent US5045566A, “Novel imidate insecticides” (ICI Americas Inc., priority 1989, dated 1991).

Tests used:
Type in all cases: in vivo
[1] = tested on: Housefly [Musca domestica]; experiment: Housefly contact mortality in dishes (HF), 48 hours; conditions: μg of test compound per 25 female flies
Summary of the method: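 Residual contact test: acetone dilution, 0.01% peanut oil spreader, solvent evaporated; 25 ♀ flies (1-2 d old) per cage; sugar-water plug; 48 h mortality read. LC50 in μg/25 female flies, from dose-mortality curves; top dose 100 μg/25 flies.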

[2] = tested on: Tobacco Budworm [Heliothis virescens (Fabricius)] eggs; experiment: Tobacco budworm eggs (TBW-E); conditions: percent in solution; 2-day old eggs
Summary of the method: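 Step 1: dip 2-day old egg patches in acetone test solutions (top concentration 0.1%). Step 2: hold in dishes with rearing medium at 78° F. Step 3: record mortality after control hatch and feeding.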

[3] = tested on: Beet Armyworm (Spodoptera exigua); experiment: Beet armyworm leaf dip (BAW), 5 days; conditions: percent in solution; second-instar larvae; five days
Summary of the method: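 Sugar beet leaves dipped 2–3 s in compound diluted in 50:50 acetone-water, dried, then infested with five second-instar larvae in humid petri dishes. Mortality scored at 5 days; concentrations from 0.1% downward. LC50 from dosage-mortality curves, expressed as percent compound in solution.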

[4] = tested on: Maize weevil [Sitophilus zeamais (Motschulsky)]; experiment: Maize weevil on dipped corn seeds (MW), 48 hours; conditions: percent in solution, adult weevils
Summary of the method: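 LC50, given as percent of compound in dipping solution, comes from dosage-mortality curves over concentrations descending from 0.01%. Four corn seeds soaked 2-3 s in 50:50 acetone:water solution were dried and held with 10 adult weevils, about 25° C, mortality read after 48 h.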

[5] = tested on: Rice water weevil [Lissorhoptrus oryzophilus (Kuschel)]; experiment: Rice water weevil topical (RWW), 48 hours; conditions: μg of test compound per weevil, female adults
Description: The compounds in Tables 1 and 2 above were tested for insecticidal activity using the following testing procedures. LC50 values, based on the results of these tests and calculated according to dosage-mortality curves, are expressed in Table 3.
Rice water weevil [Lissorhoptrus oryzophilus (Kuschel)]:
Test compounds were diluted in acetone. Droplets (1 ul) of test solutions were applied to the ventral abdomens of ten female adult weevils. The treated weevils were placed in containers with wet cotton balls and rice foliage. The containers were covered and kept at a temperature of about 25° C. Mortality was recorded after 48 hours. Test concentrations ranged from […] down to that at which 50% mortality occurred. The LC50 values are expressed below in Table 3 under the heading "RWW" in terms of μg of test compound per weevil.

[6] = tested on: Cabbage Looper [Trichoplusia ni (Hubner)]; experiment: Cabbage looper leaf dip (CL), 3-5 days; conditions: percent in solution, second-instar larvae
Summary of the method: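 Squash cotyledons dipped in test solution (acetone-water 50-50, ≤0.1%), dried, offered to 5 second-instar larvae; mortality after 3-5 days gives LC50.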

[7] = tested on: Tobacco Budworm [Heliothis virescens (Fabricius)] larvae; experiment: Tobacco budworm larvae, contact (TBW-C), 5 days; conditions: percent in solution, second-instar larvae
Summary of the method: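 Cotton cotyledons dipped 2–3 s in compound in 50-50 acetone-water, dried, then infested with 5 second-instar larvae and held 5 days at high humidity. Mortality scored; LC50 from dosage-mortality curves, expressed as percent compound in solution, concentrations from 0.1% downward.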

[8] = tested on: Black Bean Aphid [Aphis fabae (Scop.)]; experiment: Black bean aphid spray test on nasturtium (BBA), 48 hours; conditions: percent of test compound in sprayed solution
Summary of the method: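 LC50, given as percent test compound in the sprayed liquid, was calculated from dosage-mortality curves using concentrations from 0.05% downward. Sprays in 50:50 acetone-water went to runoff on ~5 cm nasturtiums carrying 25-50 aphids of mixed ages, one day after infestation. Deaths were counted 48 h later under greenhouse conditions.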

[9] = tested on: Aster Leafhopper [Macrosteles fascifrens (Stal)]; experiment: Aster leafhopper on dipped oat seedlings (LH), 48 hours; conditions: percent in solution, adults/nymphs
Summary of the method: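 Three ~10 cm oat seedlings per cup were dipped 2-3 seconds in 50-50 acetone-water compound solutions, dried, and caged with ten adult/nymph leafhoppers. Mortality was counted after 48 hours at concentrations from 0.05% downward. LC50, as percent compound in solution, came from dosage-mortality curves.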

Row | SMILES | LC50 HF [1] [µg] | LC50 TBW E (eggs) [2] [%] | LC50 BAW [3] [%] | LC50 MW [4] [%] | LC50 RWW [5] [µg] | LC50 CL [6] [%] | LC50 TBW C (contact) [7] [%] | LC50 BBA [8] [%] | LC50 LH [9] [%]
1 | CC(C)C(=Nc1ccc(F)c(Br)c1)OCc1ccc(F)c(Oc2ccc(F)cc2)c1 [Compound 273] | 7 | 0.015 | 0.0017 | 0.004 | > 2.5 | 0.000018 | 0.00025 | 0.0003 | 0.0003
2 | CC(C)C(=Nc1ccc(F)c(F)c1)OCc1ccc(F)c(Oc2ccccc2)c1 [Compound 336] | 3.6 | 0.02 | 0.001 | 0.0091 | > 2.5 | 0.00017 | 0.0005 | 0.0003 | –
3 | CC(C)C(=Nc1ccc2c(c1)OC(F)(F)O2)OCc1cccc(Oc2ccccc2)c1 [Compound 245] | 20 | 0.016 | 0.001 | 0.006 | > 2.5 | 0.0035 | 0.0015 | 0.0003 | –
4 | CC(C)C(=Nc1ccc(Cl)cc1)OCc1cccc(Oc2ccc(Cl)cc2)c1 [Compound 269] | 25 | 0.04 | 0.0024 | > 0.01 | > 2.5 | 0.0003 | 0.001 | > 0.05 | 0.003
5 | CC(C)C(=Nc1ccc(C(F)(F)F)cc1)OCc1ccc(F)c(Oc2ccc(Cl)cc2)c1 [Compound 324] | > 100 | 0.025 | 0.0024 | – | 0.06 | 0.00014 | 0.0004 | 0.0003 | –
6 | CC(C)C(=Nc1ccc(F)c(Cl)c1)OCc1ccc(F)c(Oc2ccccc2)c1 [Compound 82] | 2.5 | 0.006 | 0.0025 | – | 0.086 | 0.00018 | 0.0008 | 0.00021 | 0.0001
7 | CC(C)C(=Nc1ccc(F)c(I)c1)OCc1ccc(F)c(Oc2ccc(F)cc2)c1 [Compound 281] | 5 | 0.006 | 0.0027 | 0.005 | > 2.5 | 0.00002 | 0.00025 | 0.0003 | –
8 | CC(C)C(=Nc1ccc(F)c(Cl)c1)OCc1ccc(F)c(Oc2ccc(Cl)cc2)c1 [Compound 267] | 8.4 | 0.015 | 0.0012 | 0.0027 | 0.11 | 0.00008 | 0.0003 | 0.0003 | 0.002
9 | CC(C)C(=Nc1ccc(F)c(Cl)c1)OCc1cccc(Oc2ccc(F)cc2)n1 [Compound 461] | 6 | 0.01 | 0.0035 | 0.0075 | > 2.5 | 0.00008 | – | 0.001 | –
10 | CC(C)C(=Nc1ccc(F)c(F)c1)OCc1ccc(F)c(Oc2ccc(F)cc2)c1 [Compound 278] | 3 | 0.008 | 0.0012 | 0.0063 | 0.085 | 0.00002 | 0.00026 | 0.0005 | 0.0003
11 | CC(C)C(=Nc1ccc(C(F)(F)F)cc1)OCc1ccc(F)c(Oc2ccccc2)c1 [Compound 337] | 21 | 0.008 | 0.0005 | 0.0053 | 0.067 | 0.0007 | 0.0005 | 0.0003 | –
12 | CC(C)C(=Nc1ccc(F)c(Cl)c1)OCc1ccc(F)c(Oc2ccc(F)cc2)c1 [Compound 216] | 2 | 0.005 | 0.0007 | 0.0017 | 0.067 | 0.000007 | 0.00018 | 0.00025 | 0.00025
13 | CC(C)C(=Nc1cc(F)cc(F)c1)OCc1cccc(Oc2ccccc2)c1 [Compound 55] | > 100 | 0.06 | 0.006 | – | > 2.5 | 0.0017 | 0.004 | 0.003 | 0.0005
14 | CC(C)C(=Nc1ccc2c(c1)OCO2)OCc1ccc(F)c(Oc2ccccc2)c1 [Compound 181] | 25 | 0.01 | 0.001 | 0.005 | > 2.5 | 0.0005 | 0.001 | – | –
15 | CC(C)C(=Nc1ccc(F)cc1)OCc1ccc(F)c(Oc2ccc(Cl)cc2)c1 [Compound 325] | 5 | 0.037 | 0.0025 | – | > 2.5 | 0.00012 | 0.0006 | 0.0001 | –
16 | CC(C)C(=Nc1ccc2c(c1)OC(F)(F)O2)OCc1cccc(Oc2ccc(F)cc2)c1 [Compound 244] | 14 | > 0.1 | 0.002 | 0.0025 | 0.09 | 0.00004 | 0.00025 | 0.0006 | –
17 | CC(C)C(=Nc1ccc2c(c1)OC(F)(F)O2)OCc1ccc(F)c(Oc2ccccc2)c1 [Compound 285] | 36 | 0.005 | 0.0006 | 0.005 | 0.13 | 0.000075 | 0.00017 | – | –
18 | FC(F)(F)c1cccc(N=C(OCc2cccc(Oc3ccccc3)c2)C(Cl)Cl)c1 [Compound 66, N-(3-Trifluoromethylphenyl)-O-(3-phenoxybenzyl)dichloroacetimidate] | 9.7 | 0.06 | 0.0065 | – | > 2.5 | < 0.0025 | – | 0.0003 | 0.001
19 | CC(C)C(=Nc1ccc(F)c(Cl)c1F)OCc1cccc(Oc2ccc(Cl)cc2)c1 [Compound 331] | 20 | 0.04 | 0.002 | – | > 2.5 | 0.0002 | 0.0004 | > 0.05 | –
20 | CC(C)C(=Nc1ccc(F)c(F)c1F)OCc1ccc(F)c(Oc2ccc(F)cc2)c1 [Compound 349] | 4.9 | > 0.1 | > 0.1 | > 0.01 | > 2.5 | 0.00007 | 0.0004 | > 0.05 | –
